Test results taken from patent US20150105252A1, “SUBSTITUTED PYRAZOLES AS HERBICIDES” (E I DU PONT DE NEMOURS AND COMPANY, priority 2013, published 2015).

What was measured:
barnyardgrass [1] = test: Test A preemergence; type: in vivo, Echinochloa crus-galli
How it was run: (§1)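 Ratings express plant response from 0 (no effect) to 100 (complete control), judged visually against untreated controls after approximately 10 days in the greenhouse. Preemergence applications were made as directed soil sprays onto seeded loam–sand mix, and postemergence applications onto 2–10 cm plants at one- to two-leaf stage.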

crabgrass, large [2] = test: Test A preemergence; type: in vivo, Digitaria sanguinalis; details: for Crabgrass, Large plant response rating (0 to 100 scale): visual injury approx. 10 days after treatment
How it was run: as §1

foxtail, giant [3] = test: Test A preemergence; type: in vivo, Setaria faberii; details: for Foxtail, Giant plant response rating (0 to 100 scale): visual injury approx. 10 days after treatment
How it was run: as §1

morningglory [4] = test: Test A preemergence; type: in vivo, Ipomoea spp.; details: for Morningglory plant response rating (0 to 100 scale): visual injury approx. 10 days after treatment
How it was run: as §1

pigweed [5] = test: Test A preemergence; type: in vivo, Amaranthus retroflexus; details: for Pigweed plant response rating (0 to 100 scale): visual injury approx. 10 days after treatment
How it was run: as §1

velvetleaf [6] = test: Test A preemergence; type: in vivo, Abutilon theophrasti; details: for Velvetleaf plant response rating (0 to 100 scale): visual injury approx. 10 days after treatment
How it was run: as §1

wheat [7] = test: Test A preemergence; type: in vivo, Triticum aestivum; details: preemergence; for Wheat plant response rating (0 to 100 scale): visual injury approx. 10 days after treatment
How it was run: as §1

corn [8] = test: Test A preemergence; type: in vivo, Zea mays; details: for Corn plant response rating (0 to 100 scale): visual injury approx. 10 days after treatment
How it was run: as §1

barnyardgrass [9] = test: Test A postemergence; type: in vivo, Echinochloa crus-galli
How it was run: as §1

crabgrass, large [10] = test: Test A postemergence; type: in vivo, Digitaria sanguinalis
How it was run: as §1

foxtail, giant [11] = test: Test A postemergence; type: in vivo, Setaria faberii
How it was run: as §1

morningglory [12] = test: Test A postemergence; type: in vivo, Ipomoea spp.
How it was run: as §1

pigweed [13] = test: Test A postemergence; type: in vivo, Amaranthus retroflexus
How it was run: as §1

velvetleaf [14] = test: Test A postemergence; type: in vivo, Abutilon theophrasti
How it was run: as §1

wheat [15] = test: Test A postemergence; type: in vivo, Triticum aestivum
How it was run: as §1

corn [16] = test: Test A postemergence; type: in vivo, Zea mays
How it was run: as §1

rice = test: Test B flood; type: in vivo, Oryza sativa; details: 250 g ai/ha, visual rating on 0 to 100 scale (0 no effect, 100 complete control), 13 to 15 days
How it was run: (§2)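 2-leaf plants; pots flooded 3 cm over soil; compound added to paddy water, depth kept constant. Greenhouse 13–15 d. Visual rating vs controls, 0–100 scale (100 = complete control); dash = no result.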

sedge, umbrella = test: Test B flood; type: in vivo, Cyperus difformis; details: 250 g ai/ha, visual rating on 0 to 100 scale (0 no effect, 100 complete control), 13 to 15 days
How it was run: as §2

ducksalad = test: Test B flood; type: in vivo, Heteranthera limosa; details: 250 g ai/ha, visual rating on 0 to 100 scale (0 no effect, 100 complete control), 13 to 15 days
How it was run: as §2

barnyardgrass [17] = test: Test B flood; type: in vivo, Echinochloa crus-galli; details: 250 g ai/ha, visual rating on 0 to 100 scale (0 no effect, 100 complete control), 13 to 15 days
How it was run: as §2

[18] = preemergence, 125 g ai/ha, visual injury, 0 to 100 scale, approx. 10 days
[19] = preemergence, 500 g ai/ha, visual injury after approx. 10 days, 0 to 100 scale (0 no effect, 100 complete control)
[20] = 500 g ai/ha, visual injury after approx. 10 days, 0 to 100 scale (0 no effect, 100 complete control)
[21] = Postemergence, 500 g ai/ha, 0 to 100 scale (0 no effect, 100 complete control)
[22] = postemergence, 125 g ai/ha, about 10 days, visual rating on 0 to 100 scale (0 no effect, 100 complete control)
[23] = Preemergence, 500 g ai/ha, 0 to 100 scale, 0 no effect, 100 complete control
[24] = Postemergence, 500 g ai/ha, visual rating after approx. 10 days, 0 to 100 scale (0 no effect, 100 complete control)

## CCCNC(=O)c1cc(Br)n(Cc2cccc(C(F)(F)F)c2)n1 [Compound 159]
Barnyardgrass [1]; [18]
  Barnyardgrass plant response rating: 0
Barnyardgrass [1]; [19]
  Barnyardgrass plant response rating: 20
crabgrass, large [2]; preemergence, 125 g ai/ha
  Crabgrass, Large plant response rating (0 to 100 scale): 10
crabgrass, large [2]; [19]
  Crabgrass, Large plant response rating: 90
foxtail, giant [3]; preemergence, 125 g ai/ha
  Foxtail, Giant plant response rating (0 to 100 scale): 0
foxtail, giant [3]; [19]
  Foxtail, Giant plant response rating: 30
Morningglory [4]; preemergence, 125 g ai/ha
  Morningglory plant response rating (0 to 100 scale): 0
Morningglory [4]; [19]
  Morningglory plant response rating: 0
Pigweed [5]; preemergence, 125 g ai/ha
  Pigweed plant response rating (0 to 100 scale): 10
Pigweed [5]; [19]
  Pigweed plant response rating: 60
Velvetleaf [6]; preemergence, 125 g ai/ha
  Velvetleaf plant response rating (0 to 100 scale): 0
Velvetleaf [6]; [19]
  Velvetleaf plant response rating: 0
Wheat [7]; 125 g ai/ha
  Wheat plant response rating (0 to 100 scale): 0
Wheat [7]; [20]
  Wheat plant response rating: 0
Corn [8]; preemergence, 125 g ai/ha
  Corn plant response rating (0 to 100 scale): 0
Corn [8]; [19]
  Corn plant response rating: 0
Barnyardgrass [9]; [21]
  Barnyardgrass plant response rating: 30
Barnyardgrass [9]; [22]
  Barnyardgrass plant response rating: 0
crabgrass, large [10]; [21]
  Crabgrass, Large plant response rating: 30
crabgrass, large [10]; [22]
  Crabgrass, Large plant response rating: 20
foxtail, giant [11]; [21]
  Foxtail, Giant plant response rating: 30
foxtail, giant [11]; [22]
  Foxtail, Giant plant response rating: 20
Morningglory [12]; [21]
  Morningglory plant response rating: 40
Morningglory [12]; [22]
  Morningglory plant response rating: 30
Pigweed [13]; [21]
  Pigweed plant response rating: 60
Pigweed [13]; [22]
  Pigweed plant response rating: 50
Velvetleaf [14]; [21]
  Velvetleaf plant response rating: 70
Velvetleaf [14]; [22]
  Velvetleaf plant response rating: 60
Wheat [15]; [21]
  Wheat plant response rating: 20
Wheat [15]; [22]
  Wheat plant response rating: 0
Corn [16]; [21]
  Corn plant response rating: 20
Corn [16]; [22]
  Corn plant response rating: 10
rice
  Plant response rating, Rice: 0
sedge, umbrella
  Plant response rating, Sedge, Umbrella: 0
ducksalad
  Plant response rating, Ducksalad: 0
Barnyardgrass [17]
  Plant response rating, Barnyardgrass: 0

## CCCNC(=O)c1cc(CC)n(Oc2ccnc(C(F)(F)F)c2)n1 [Compound 82]
Barnyardgrass [1]; [23]
  Barnyardgrass plant response rating: 80
Barnyardgrass [1]; [18]
  Barnyardgrass plant response rating: 30
crabgrass, large [2]; [23]
  Crabgrass, Large plant response rating: 100
crabgrass, large [2]; [18]
  Crabgrass, Large plant response rating: 70
foxtail, giant [3]; [23]
  Foxtail, Giant plant response rating: 100
foxtail, giant [3]; [18]
  Foxtail, Giant plant response rating: 40
Morningglory [4]; [23]
  Morningglory plant response rating: 50
Morningglory [4]; [18]
  Morningglory plant response rating: 10
Pigweed [5]; [23]
  Pigweed plant response rating: 60
Pigweed [5]; [18]
  Pigweed plant response rating: 0
Velvetleaf [6]; [23]
  Velvetleaf plant response rating: 20
Velvetleaf [6]; [18]
  Velvetleaf plant response rating: 0
Wheat [7]; 125 g ai/ha, visual injury, 0 to 100 scale, approx. 10 days
  Wheat plant response rating: 10
Wheat [7]; [20]
  Wheat plant response rating: 60
Corn [8]; [23]
  Corn plant response rating: 60
Corn [8]; [18]
  Corn plant response rating: 20
Barnyardgrass [9]; Postemergence, 125 g ai/ha, 0 to 100 scale, 0 no effect, 100 complete control
  Barnyardgrass plant response rating: 20
Barnyardgrass [9]; [24]
  Barnyardgrass plant response rating: 50
crabgrass, large [10]; [24]
  Crabgrass, Large plant response rating: 60
crabgrass, large [10]; [22]
  Crabgrass, Large plant response rating: 30
foxtail, giant [11]; [24]
  Foxtail, Giant plant response rating: 60
foxtail, giant [11]; [22]
  Foxtail, Giant plant response rating: 10
Morningglory [12]; [24]
  Morningglory plant response rating: 60
Morningglory [12]; [22]
  Morningglory plant response rating: 50
Pigweed [13]; [24]
  Pigweed plant response rating: 30
Pigweed [13]; [22]
  Pigweed plant response rating: 10
Velvetleaf [14]; [24]
  Velvetleaf plant response rating: 20
Velvetleaf [14]; [22]
  Velvetleaf plant response rating: 10
Wheat [15]; [24]
  Wheat plant response rating: 50
Wheat [15]; [22]
  Wheat plant response rating: 0
Corn [16]; [24]
  Corn plant response rating: 60
Corn [16]; [22]
  Corn plant response rating: 20
rice
  Plant response rating, Rice: 0
sedge, umbrella
  Plant response rating, Sedge, Umbrella: 75
ducksalad
  Plant response rating, Ducksalad: 30
Barnyardgrass [17]
  Plant response rating, Barnyardgrass: 0

## CCCCNC(=O)c1cc(I)n(Cc2cccc(C(F)(F)F)c2)n1 [Compound 182]
Barnyardgrass [1]; preemergence, 125 g ai/ha, visual injury approx. 10 days after treatment
  Barnyardgrass plant response rating (0 to 100 scale, 0 is no effect, 100 is complete control): 0
Barnyardgrass [1]; [19]
  Barnyardgrass plant response rating: 0
crabgrass, large [2]; preemergence, 125 g ai/ha
  Crabgrass, Large plant response rating (0 to 100 scale): 0
crabgrass, large [2]; [19]
  Crabgrass, Large plant response rating: 60
foxtail, giant [3]; preemergence, 125 g ai/ha
  Foxtail, Giant plant response rating (0 to 100 scale): 0
foxtail, giant [3]; [19]
  Foxtail, Giant plant response rating: 50
Morningglory [4]; preemergence, 125 g ai/ha
  Morningglory plant response rating (0 to 100 scale): 0
Morningglory [4]; [19]
  Morningglory plant response rating: 0
Pigweed [5]; preemergence, 125 g ai/ha
  Pigweed plant response rating (0 to 100 scale): 0
Pigweed [5]; [19]
  Pigweed plant response rating: 30
Velvetleaf [6]; preemergence, 125 g ai/ha
  Velvetleaf plant response rating (0 to 100 scale): 0
Velvetleaf [6]; [19]
  Velvetleaf plant response rating: 0
Wheat [7]; 125 g ai/ha
  Wheat plant response rating (0 to 100 scale): 0
Wheat [7]; [20]
  Wheat plant response rating: 0
Corn [8]; preemergence, 125 g ai/ha
  Corn plant response rating (0 to 100 scale): 0
Corn [8]; [19]
  Corn plant response rating: 0
Barnyardgrass [9]; [21]
  Barnyardgrass plant response rating: 30
Barnyardgrass [9]; [22]
  Barnyardgrass plant response rating: 20
crabgrass, large [10]; [21]
  Crabgrass, Large plant response rating: 30
crabgrass, large [10]; [22]
  Crabgrass, Large plant response rating: 10
foxtail, giant [11]; [21]
  Foxtail, Giant plant response rating: 20
foxtail, giant [11]; [22]
  Foxtail, Giant plant response rating: 0
Morningglory [12]; [21]
  Morningglory plant response rating: 30
Pigweed [13]; [21]
  Pigweed plant response rating: 90
Velvetleaf [14]; [21]
  Velvetleaf plant response rating: 70
Wheat [15]; [21]
  Wheat plant response rating: 0
Corn [16]; [21]
  Corn plant response rating: 20
Corn [16]; [22]
  Corn plant response rating: 0
rice
  Plant response rating, Rice: 0
sedge, umbrella
  Plant response rating, Sedge, Umbrella: 0
ducksalad
  Plant response rating, Ducksalad: 0
Barnyardgrass [17]
  Plant response rating, Barnyardgrass: 0
